Laboratory results as given in patent US10259792B2, “Crystal of uracil compound” (priority 2015, dated 2019).

What was measured:
[1] = Blood concentration measurement test (oral administration to mice); format: in vivo; conditions: 0.5% HPMC suspension, 50 mg/10 mL/kg, fed Balb/cA mice, compound (1) in plasma by LC-MS/MS
Description: A 0.5% HPMC dosing suspension (50 mg/10 mL/kg) of each of crystal I and crystal II was prepared. These suspensions were orally administered to mice (Balb/cA), which had been reared under feeding conditions, in a volume of 10 mL per kg body weight using an oral gavage tube. After administration, mice were returned to the mouse cage, and their conditions were checked. In the cage, water and feed were available ad libitum. At 0.5, 1, 2, 4, 6, and 8 hours after administration, mice were anesthetized with isoflurane, and 60 μL of blood was collected from the orbital venous plexus using a capillary blood collecting tube. The collected blood was ice-cooled, and centrifuged to separate plasma. The mice after blood collection were returned to the animal rearing cage, and their conditions after recovering from anesthesia were checked. After the final blood collection, the depth of isoflurane anesthesia was checked, and then the mice were euthanized by cervical dislocation.
From the concentrations of compound (1) in plasma measured by MRM method using LC-MS/MS, AUC0-24 hr was calculated by log-linear trapezoidal method using Phoenix WinNonlin (v6.3.0), software manufactured by Pharsight.

[2] = Solid stability test (under light exposure); format: physicochemical; conditions: for Change of chemical purity / Change of crystal form by powder X-ray crystallography: 1 month under light exposure; for Chemical purity, Initial value / Chemical purity, One month later: HPLC; for Chemical purity, Initial value: before storage; for Chemical purity, One month later: stored 1 month under light exposure in clear glass bottle
Description: The solid stabilities of crystal I and crystal II obtained in the Examples, when stored for 1 month under light exposure, were measured under the following conditions.
Storage condition: Sample was placed in a transparent glass bottle, then the lid was placed, and the grove between the lid and the bottle was sealed by the grafting tape.
Measurement point: 1 Month
Stored amount: About 30 mg
Storage container: Clear glass bottle
Chemical purity of compound (1) in the sample solution was measured by HPLC analysis. The apparatuses, including the apparatus for data processing, were handled according to the processes and procedures instructed for the apparatuses. (Apparatus: Shimadzu Corporation LC-20AB)
Column: L-column 2 ODS manufactured by Chemicals Evaluation and Research Institute, 4.6×150 mm, 5 μm
Column temperature: 50° C.
Column flow rate: 1.0 mL/min
Mobile phase: A; Water, B; Acetonitrile
Sample concentration: 1.0 mg/mL

AUC(0-t) ([1]; Balb/cA, mouse, plasma, po, 50 mg/kg, read-out: AUC0-24 hr) [µM·h] | Change of chemical purity [2] | Change of crystal form by powder X-ray crystallography [2] | Chemical purity, Initial value [2] [%] | Chemical purity, One month later [2] [%] | AUC0-24 hr [1] [µM·h] | Structure (SMILES)
122 | did not change | no change of crystal form | 97.8 | 97.4 |  | C[C@@H](NS(=O)(=O)CCCOCn1ccc(=O)[nH]c1=O)c1cccc(OC2CCCC2)c1 [Crystal I, (R)—N-(1-(3-(cyclopentyloxy)phenyl)ethyl)-3-((2,4-dioxo-3,4-dihydropyrimidin-1(2H)-yl)methoxy)propane-1-sulfonamide]
 | did not change | no change of crystal form | 99.0 | 99.1 | 144.51 | C[C@@H](NS(=O)(=O)CCCOCn1ccc(=O)[nH]c1=O)c1cccc(OC2CCCC2)c1 [Crystal II, (R)—N-(1-(3-(cyclopentyloxy)phenyl)ethyl)-3-((2,4-dioxo-3,4-dihydropyrimidin-1(2H)-yl)methoxy)propane-1-sulfonamide]
